Measured values as given in BindingDB's records for doi:10.7270/Q25D8Q92 (Burnham Center For Chemical Genomics, 2011).

These molecules were tested against T1, Bcl-2-related protein A1 (Mus musculus, UniProt Q07440) (assay: Bfl-1 activity inhibition – biochemical, dose response (AID 504689)).
T1 sequence (Q07440 whole entry): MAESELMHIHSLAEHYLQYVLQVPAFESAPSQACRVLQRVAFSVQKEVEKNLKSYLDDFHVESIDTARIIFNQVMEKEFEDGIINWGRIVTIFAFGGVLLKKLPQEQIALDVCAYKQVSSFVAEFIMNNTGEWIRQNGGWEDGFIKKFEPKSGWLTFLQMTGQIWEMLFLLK

Structure (SMILES)	IC50 [µM]
CC(=O)N1N=C(C2C(=O)N(C)C(=O)N(C)C2=O)CC1c1ccccc1 (stereo not given) [5-(1-acetyl-5-phenylpyrazolidin-3-ylidene)-1,3-dimethyl-1,3-diazinane-2,4,6-trione]	> 20
C#CCOCCOCCOCCNc1nc(N2CCN(C(=O)CCCCCCCCCCNC(=O)Cn3cc(CCCCCN)nn3)CC2)nc(N2CCN(C(=O)CCCCCCCCCCNC(=O)[C@H]([C@@H](C)CC)n3cc(CCCCN=C(N)N)nn3)CC2)n1 [KG-RI]	9.73
NC(=S)NN=C1C(=O)N(C2OC(=O)c3ccccc32)c2ccccc21 (stereo not given) [[(Z)-[2-oxo-1-(3-oxo-1H-isobenzofuran-1-yl)-3-indolylidene]amino]thiourea]	> 20
O=C1Nc2ccccc2/C1=N/NC(=S)Nc1ccc(O)cc1 [1-(4-hydroxyphenyl)-3-[(2-oxidanylideneindol-3-yl)amino]thiourea]	> 20
COc1cc2c3c(c1)/C(=N/NC(N)=S)C(=O)N3C(C)(C)C=C2C [MLS000807018]	> 20
COc1ccc(CN=Nc2cc(C)nc3ccc(OC)cc23)c(OC)c1	11.4
C#CCOCCOCCOCCNc1nc(N2CCN(C(=O)CCCCCCCCCCNC(=O)[C@H](CCCCN)n3cc(CCO)nn3)CC2)nc(N2CCN(C(=O)CCCCCCCCCCNC(=O)[C@@H]([C@H](C)O)n3cc(C)nn3)CC2)n1 [MLS002153685]	> 20
C#CCOCCOCCOCCNc1nc(N2CCN(C(=O)CCCCCCCCCCNC(=O)[C@@H](CCSC)n3cc(CCO)nn3)CC2)nc(N2CCN(C(=O)CCCCCCCCCCNC(=O)[C@H](CCC(=O)O)n3cc(CCCCCN)nn3)CC2)n1 [MLS002153730]	> 20
C#CCOCCOCCOCCNc1nc(N2CCN(C(=O)[C@H](CCCCN)n3cc([C@@H](N)C(C)CC)nn3)CC2)nc(N2CCN(C(=O)[C@H](Cc3ccc(O)cc3)n3cc([C@@H](N)C(C)CC)nn3)CC2)n1 (stereo not given in full) [SMR000391090]	> 20
C#CCOCCOCCOCCNc1nc(N2CCN(C(=O)CCCCCCCCCCNC(=O)[C@H]([C@@H](C)CC)n3cc(CCCCCN)nn3)CC2)nc(N2CCN(C(=O)CCCCCCCCCCNC(=O)[C@H](CCCCN)n3cc(CCCC(=O)O)nn3)CC2)n1 [KI-EK]	> 20
